Assay results published in publication PMC11595589, “A Pharmacokinetic and Bioavailability Study of Ecklonia cava Phlorotannins Following Intravenous and Oral Administration in Sprague–Dawley Rats” (Marine Drugs, 2024).

Experiment: Relative polarity by RP-HPLC of EK-ECP
Type: physicochemical
Conditions: RP-HPLC chromatogram of EK-ECP
Method: A further detailed analysis of the phlorotannins present in EK-ECP was performed to identify and quantify the major components (individual phlorotannins) by reversed phase high performance liquid chromatography (RP-HPLC). A representative HPLC (Column: CAPCELL PAK C18; Detector: UV 234 nm) chromatogram and the identification of major components are presented in Figure 3. As shown in the chromatogram, dieckol at retention time 15.65 min was the most notable compound in EK-ECP. The chromatogram could be divided to relatively high (6–13 min), mid (13~20 min) and low polarity region (20~27 min) and each region could be represented by the regionally most notable peak 8,8′-bieckol, dieckol and PFF-A, respectively. These three phlorotannins were selected for monitoring the blood samples upon administration of EK-ECP during pharmacokinetic (PK) experiment. Other minor phlorotannins than the three notable ones identified were 2-O-(2,4,6-Trihydroxyphenyl)-6,6′-bieckol (7.217 min), 6,6′-bieckol (7.717 min), 7-phloroeckol (7.717 min), 2-phloroeckol (9.883 min), eckol (10.450 min), dioxinodehydroeckol (23.100 min) and fucofuroeckol A (23.650 min). Other notable peaks, such as those at 12.133, 17.483, 20.833, and 21.250 min, remain unidentified due to the technical challenges in isolating and identifying the corresponding single compounds.
The hydroxyl protons observed in the phlorotannin structures are attached to aromatic rings, resulting in distinct downfield shifts (near 9 ppm) due to the electron-withdrawing effects of the aromatic system. This contrasts with the hydroxyl groups found in aliphatic alcohols in general. […]
^1H NMR (500 MHz) was acquired on Bruker Avance III 500 MHz NMR spectrometer (Bruker Corporation, Billerica, MA, USA) using DMSO-d6 as a solvent. […] To quantify the total polyphenolic content of EK-ECP, the Folin–Ciocalteu reagent was reacted with EK-ECP dissolved in 50% aqueous ethanol, and the resulting solution was analyzed using a UV–Vis spectrophotometer (SPECTROstarNano, BMG Labtech, Ortenberg, Germany) at 725 nm. […]

Oc1cc(O)cc(Oc2c(O)cc(O)c3c2Oc2c(cc(O)c(-c4c(O)cc5c(c4O)Oc4c(Oc6cc(O)cc(O)c6)c(O)cc(O)c4O5)c2O)O3)c1 [8,8′-bieckol]
relative polarity within the phlorotannin extract: the most hydrophilic

Oc1cc(O)cc(Oc2c(O)cc(O)c3c2Oc2c(O)cc4oc5c(Oc6cc(O)cc(O)c6)c(O)cc(O)c5c4c2O3)c1 [PFF-A, phlorofucofuroeckol-A]
relative polarity within the phlorotannin extract: the most lipophilic

Oc1cc(O)cc(Oc2c(O)cc(O)c3c2Oc2c(O)cc(Oc4c(O)cc(Oc5c(O)cc(O)c6c5Oc5c(O)cc(O)cc5O6)cc4O)cc2O3)c1 [dieckol]
relative polarity within the phlorotannin extract: in between
